Assay results published in patent publication US6930131B2, “Aryl substituted 3-ethoxy phenyl trifluoromethane sulfonamides for the treatment of non-insulin dependent diabetes mellitus (NIDDM)” (Wyeth, priority 2002, dated 2005).

| melting point [°C] | Compound |
| --- | --- |
| 96 to 98 | COc1ccc(-c2ccc(COCCc3cccc(NS(=O)(=O)C(F)(F)F)c3)cc2)cc1 [Example 4, C,C,C-Trifluoro-N-{3-[2-(4′-methoxy-biphenyl-4-ylmethoxy)-ethyl]-phenyl}-methanesulfonamide] |
| 105 to 107 | O=S(=O)(Nc1cccc(CCOCc2ccc(-c3cccc(Cl)c3)cc2)c1)C(F)(F)F [Example 5, N-{3-[2-(3′-Chloro-biphenyl-4-ylmethoxy)-ethyl]-phenyl}-C,C,C-trifluoromethane sulfonamide] |
| 95 to 96 | O=S(=O)(Nc1cccc(CCOCc2ccc(-c3ccccn3)cc2)c1)C(F)(F)F [Example 8, C,C,C-Trifluoro-N-{3-[2-(4-pyridin-2-yl-benzyloxy)-ethyl]-phenyl}-methane sulfonamide] |
| 65 to 67 | O=S(=O)(Nc1cccc(CCOCc2ccc(-c3ccc(F)cc3)cc2F)c1)C(F)(F)F [Example 10, N-{3-[2-(3,4′-Difluoro-biphenyl-4-ylmethoxy)-ethyl]-phenyl}-C,C,C-trifluoro-methanesulfonamide] |
| 121 to 122 | O=S(=O)(Nc1cccc(CCOCc2ccc(-c3ccc(C(F)(F)F)cc3)cc2F)c1)C(F)(F)F [Example 14, C,C,C-Trifluoro-N-{3-[2-(3-fluoro-4′-trifluoromethyl-biphenyl-4-yl-methoxy)-ethyl]-phenyl}-methanesulfonamide] |
| 65 to 66 | O=S(=O)(Nc1cccc(CCOCc2ccc(-c3ccc(Cl)cc3Cl)cc2F)c1)C(F)(F)F [Example 15, N-{3-[2-(2′,4′-Dichloro-3-fluoro-biphenyl-4-ylmethoxy)-ethyl]-phenyl}-C,C,C-trifluoro-methanesulfonamide] |
| 60 to 61 | Cc1cccc(-c2ccc(COCCc3cccc(NS(=O)(=O)C(F)(F)F)c3)c(F)c2)c1 [Example 16, C,C,C-Trifluoro-N-{3-[2-(3-fluoro-3′-methyl-biphenyl-4-yl-methoxy)-ethyl]-phenyl}-methanesulfonamide] |
| 60 to 61 | O=S(=O)(Nc1cccc(CCOCc2ccc(-c3cccc(C(F)(F)F)c3)cc2F)c1)C(F)(F)F [Example 17, C,C,C-Trifluoro-N-{3-[2-(3-fluoro-3′-trifluoromethyl-biphenyl-4-yl-methoxy)-ethyl]-phenyl}-methanesulfonamide] |
| 114 to 115 | O=S(=O)(Nc1cccc(CCOCc2ccc(-c3ccc(OC(F)(F)F)cc3)cc2F)c1)C(F)(F)F [Example 18, C,C,C-Trifluoro-N-{3-[2-(3-fluoro-4′-trifluoromethoxy-biphenyl-4-yl-methoxy)-ethyl]-phenyl}-methanesulfonamide] |
| 80 to 82 | COc1cccc(-c2ccc(COCCc3cccc(NS(=O)(=O)C(F)(F)F)c3)c(F)c2)c1 [Example 20, C,C,C-Trifluoro-N-{3-[2-(3-fluoro-3′-methoxy-biphenyl-4-yl-methoxy)ethyl]-phenyl}-methanesulfonamide] |
| 79 to 81 | O=S(=O)(Nc1ccc(CCOCc2ccccc2-c2ccccc2)cc1)C(F)(F)F [Example 27, N-{4-[2-(Biphenyl-2-ylmethoxy)-ethyl]-phenyl}-C,C,C-trifluoromethanesulfonamide] |
| 88 to 90 | COc1ccc(-c2cccc(COCCc3cccc(NS(=O)(=O)C(F)(F)F)c3)c2)cc1 [Example 28, C,C,C-Trifluoro-N-{3-[2-(4′-methoxy-biphenyl-3-ylmethoxy)-ethyl]-phenyl}-methanesulfonamide] |
| 80 to 82 | O=S(=O)(Nc1cccc(CCOCc2cc(-c3ccc(F)cc3)ccc2Cl)c1)C(F)(F)F [Example 29, N-{3-[2-(4-Chloro-4′-fluoro-biphenyl-3-ylmethoxy)-ethyl]-phenyl)-C,C,C-trifluoro-methanesulfonamide] |
| 55 to 57 | COc1ccc(-c2ccc(F)cc2)cc1COCCc1cccc(NS(=O)(=O)C(F)(F)F)c1 [Example 30, N-{3-[2-(4′-Fluoro-4-methoxy-biphenyl-3-ylmethoxy)-ethyl]-phenyl)-C,C,C-trifluoro-methanesulfonamide] |
